Reference: patent publication US9428464B2, “Kynurenine-3-monooxygenase inhibitors, pharmaceutical compositions, and methods of use thereof” (CHDI Foundation, Inc., priority 2011, dated 2016)

System: KMO
Assay: KMO activity assay: L-Kynurenine hydroxylation to 3-Hydroxy-Kynurenine, quantified by LC/MS
Type: biochemical
Conditions: compound at 10 uM; footnote: some portion of activity of amides may be due to contribution of acid precursor
Protocol: A generalized procedure for monitoring L-Kynurenine (KYN) hydroxylation to form product 3-Hydroxy-Kynurenine (3OH-KYN) by LC/MS is described below. Product is quantified by multiple reaction monitoring using MS.
A method of monitoring L-Kynurenine (KYN) hydroxylation to form product 3-Hydroxy-Kynurenine (3OH-KYN) by LC/MS is described below. Product is quantified by multiple reaction monitoring.
• Compound: Stock concentrations: 10 mM in 100% DMSO • Enzyme: KMO enzyme prepared at Evotec via mitochondria isolation from CHO-GST HIS KMO cells • Substrate: L-Kynurenine (Sigma: Cat #K3750) • [stock concentration: 10 mM in 100 mM potassium phosphate buffer, pH 7.4]
A method of monitoring L-Kynurenine (KYN) hydroxylation to form 3-Hydroxy-Kynurenine (3OH-KYN) by LC/MS is described. Product is quantified by multiple reaction monitoring (MRM method).

CC1(C)CC(NC(=O)c2cc(-c3ccc(Cl)c(Cl)c3)ncn2)CC(C)(C)N1 [6-(3,4-Dichloro-phenyl)-pyrimidine-4-carboxylic acid (2,2,6,6-tetramethyl-piperidin-4-yl)-amide]
% Inhibition at 10 uM: 100.11%

Cc1cc(C)c(NC(=O)c2cc(-c3ccc(Cl)c(Cl)c3)ncn2)c(C)c1 [6-(3,4-Dichloro-phenyl)-pyrimidine-4-carboxylic acid (2,4,6-trimethyl-phenyl)-amide]
% Inhibition at 10 uM: 70.84%

Cc1ccnc(C)c1NC(=O)c1cc(-c2ccc(Cl)c(Cl)c2)ncn1 [6-(3,4-Dichloro-phenyl)-pyrimidine-4-carboxylic acid (2,4-dimethyl-pyridin-3-yl)-amide]
% Inhibition at 10 uM: 85.37%

CN(CCN)C(=O)c1cc(-c2ccc(Cl)c(Cl)c2)ncn1.O=C(O)C(F)(F)F [6-(3,4-Dichloro-phenyl)-pyrimidine-4-carboxylic acid (2-amino-ethyl)-methyl-amide, trifluoro-acetic acid salt]
% Inhibition at 10 uM: 64.52%

CC(C)(O)CNC(=O)c1cc(-c2ccc(Cl)c(Cl)c2)ncn1 [6-(3,4-Dichloro-phenyl)-pyrimidine-4-carboxylic acid (2-hydroxy-2-methyl-propyl)-amide]
% Inhibition at 10 uM: 57.19%

Cc1cnc(NC(=O)c2cc(-c3ccc(Cl)c(Cl)c3)ncn2)c(C)n1 [6-(3,4-Dichloro-phenyl)-pyrimidine-4-carboxylic acid (3,5-dimethyl-pyrazin-2-yl)-amide]
% Inhibition at 10 uM: 97.84%

Cc1nsc(NC(=O)c2cc(-c3ccc(Cl)c(Cl)c3)ncn2)n1 [6-(3,4-Dichloro-phenyl)-pyrimidine-4-carboxylic acid (3-methyl-[1,2,4]-thiadiazol-5-yl)-amide]
% Inhibition at 10 uM: 100.16%

Cl.O=C(Nc1cccc(N2CCOCC2)c1)c1cc(-c2ccc(Cl)c(Cl)c2)ncn1 [6-(3,4-Dichloro-phenyl)-pyrimidine-4-carboxylic acid (3-morpholin-4-yl-phenyl)-amide hydrochloride salt]
% Inhibition at 10 uM: 99.76%

O=C(Nc1cccc(N2CCOCC2)c1)c1cc(-c2ccc(Cl)c(Cl)c2)ncn1 [6-(3,4-Dichloro-phenyl)-pyrimidine-4-carboxylic acid (3-morpholin-4-yl-phenyl)-amide]
% Inhibition at 10 uM: 100.15%

Cl.O=C(Nc1cccc(C2CNCCN2)c1)c1cc(-c2ccc(Cl)c(Cl)c2)ncn1 (stereo not drawn) [6-(3,4-Dichloro-phenyl)-pyrimidine-4-carboxylic acid (3-piperazin-2-yl-phenyl)-amide hydrochloride salt]
% Inhibition at 10 uM: 96.58%

Cl.O=C(Nc1cccc(C2CCNCC2)c1)c1cc(-c2ccc(Cl)c(Cl)c2)ncn1 [6-(3,4-Dichloro-phenyl)-pyrimidine-4-carboxylic acid (3-piperidin-4-yl-phenyl)-amide hydrochloride salt]
% Inhibition at 10 uM: 69.06%

O=C(Nc1cc(C(F)(F)F)no1)c1cc(-c2ccc(Cl)c(Cl)c2)ncn1 [6-(3,4-Dichloro-phenyl)-pyrimidine-4-carboxylic acid (3-trifluoromethyl-isoxazol-5-yl)-amide]
% Inhibition at 10 uM: 101.875%

CN(C)C1(CNC(=O)c2cc(-c3ccc(Cl)c(Cl)c3)ncn2)CCOCC1.Cl [6-(3,4-Dichloro-phenyl)-pyrimidine-4-carboxylic acid (4-dimethylamino-tetrahydro-pyran-4-ylmethyl)-amide hydrochloride salt]
% Inhibition at 10 uM: 96.81%

O=C(NCC1(O)CCOCC1)c1cc(-c2ccc(Cl)c(Cl)c2)ncn1 [6-(3,4-Dichloro-phenyl)-pyrimidine-4-carboxylic acid (4-hydroxy-tetrahydro-pyran-4-ylmethyl)-amide]
% Inhibition at 10 uM: 74.49%

Cl.O=C(Nc1ccc(N2CCOCC2)cc1)c1cc(-c2ccc(Cl)c(Cl)c2)ncn1 [6-(3,4-Dichloro-phenyl)-pyrimidine-4-carboxylic acid (4-morpholin-4-yl-phenyl)-amide hydrochloride salt]
% Inhibition at 10 uM: 76.95%
